{
  "source": "patent US11433136B2",
  "about": "“Polyacetal polymers, conjugates, particles and uses thereof” (THE GENERAL HOSPITAL CORPORATION, priority 2015, dated 2022)",
  "key": {"PAN02 tumors": {"test_system": "PAN02 tumors", "test": "Orthotopic PAN02 pancreatic (PDAC) tumors in lean and obese mice", "type": "in vivo, mice (C57BL/6)", "method": "Diet started at six weeks of age, continued for ten weeks (C57BL/6 and FVB), at which time tumors were implanted, and then continued until the end of experiments. In the spontaneous tumor models, diets were administered until tumor collection. Mice genetically deficient for leptin (ob/ob) on a standard chow for seven weeks gained weight compared to age matched WT mice (n=8-10/group for C57Bl/6, FVB and ob/ob, 4-10/group for KPC, 7-21/group for iKRAS). Left bars represent mice fed a low-fat diet, right bars represent mice fed a high fat diet for all groups except C57/B6 on the far right of the graph, in which the right bar represents the ob/ob mice. […] PAN02 and AK4.4 syngeneic tumors were orthotopically implanted in C57BL/6 and FVB mice respectively at ten weeks of diet (lean diet, left bars; and obese diet or ob/ob mice, right bars); ob/ob mice were implanted with PAN02 tumors at seven weeks of age. Tumors were collected 21 days later. Obese animals presented with higher tumor weights than lean counterparts in all models (n=8-10/group). FIG. 7D is representative images of mesenteric peritoneal dissemination in lean and obese mice implanted with PAN02 tumors. Mesenteries collected at the same time as tumors in FIG. 7C. FIG. 7E is a graph showing the quantification of mesenteric peritoneal metastasis in the PAN02 model. FIG. 7F is a graph showing the quantification of retro-peritoneal metastasis in the AK4.4 model. Data are shown as mean±standard error of the mean (SEM). P values were determined by the Student t-test. *, P<0.05; **, P<0.01; ***, P<0.001.\nFIG. 9A is representative pictures of CD31(+) vessels and lectin in PAN02 tumors. Scale bars: 200 μm. FIG. 9B is a graph showing the quantification of the total (CD31+) and lectin-positive (CD31/lectin+) vessel area in PAN02 tumors. Obese mice (right bars) presented with decreased perfusion (n=3-6 tumors/group) compared to lean mice (left bars). […] Obese mice presented with increased hypoxia in tumors. […] 5-FU quantified via high performance liquid chromatography (HPLC). […] PAN02 tumors were orthotopically implanted at ten weeks of diet, treatments were initiated at day seven post-implantation and tumors resected at day 19. […] Data are shown as mean±SEM. P values were determined by the Student t-test unless otherwise stated. *, P<0.05; **, P<0.01\nExpression of genes associated with AT-1 pathway activation and fibrosis/desmoplasia is increased in PAN02 (FIG. 10A) and AK4.4 (FIG. 10B) tumors from obese mice (right bars) in comparison to lean mice (left bars). […] Data normalized to lean group. 3-4 samples per group pooled in one single PCR array fibrosis gene set plate. […] Of note, similar to αSMA, the changes of AT1, as well as other desmoplasia related markers, were relatively mild in the lean setting. […] Data are shown as mean±SEM with the exception of FIGS. 10A and 10B. P values were determined by the Student t-test unless otherwise stated. *, P<0.05; **, P<0.01, ***p<0.001.\nObesity promoted infiltration of myeloid Gr-1(+)F4/80(−) cell population in PAN02 tumors in obese mice. FIG. 11B is a quantification normalized by total viable cells (i) or total CD45 leucocytes (ii) (n=4-6 tumors/group). FIG. 11C is representative FACS scatter plots of CD45(+)CD11b(+)Ly6G(+) tumor associated neutrophils (TANs), CD8(+) cytotoxic lymphocytes and CD4(+)CD25(+) regulatory T cells in PAN02 tumors in lean and obese setting. […] Obese promoted an increase in TANs and a decrease in CD8 cells in PAN02 tumors. A strong tendency for increased Tregs was also observed. […] Scale bars: 1 mm (whole tumors) and 100 μm (caption). […] (n=4-6 tumors/group). For bar graphs in FIGS. 11A, 11B, 11D, and 11E, left bars represent lean mice, and right bars represent obese mice. For the bar graph in FIG. 11J, left bars represent obese mice, and right bars represent obese mice with TAN depletion. Data are shown as mean±SEM. […]"}, "PDAC": {"test_system": "PDAC", "details": "in vivo; cited from earlier work"}, "[1]": {"test_system": "cardiac and renal fibrosis", "details": "in vivo; cited from earlier work"}, "Marfan syndrome": {"test_system": "Marfan syndrome", "details": "children; cited from earlier work"}, "[2]": {"test_system": "mouse models of Marfan syndrome", "details": "affected mice; cited from earlier work"}, "PDACs": {"test_system": "PDACs", "test": "Effect of losartan on immune cell populations in tumors (model not stated)", "design": "species or system mice", "details": "mouse, in vivo", "method": "FIGS. 21A, 21B, and 21C show the effect of losartan on the immune tumor microenvironment. […] Error bars represent standard error of the mean. P values were determined by the Student t-test in A. *, P<0.05, **, P<0.01, ***, P<0.001."}},
  "data": [
    {"molecule": "O=c1[nH]cc(F)c(=O)[nH]1", "note": "[Example 5-FU, 5-fluorouracil]", "values": [
      {"measurement": "delivery of chemotherapy to tumors, 5-FU quantified via HPLC", "setting": "PAN02 tumors; obese vs lean mice", "result": "decreased delivery"},
      {"measurement": "response to chemotherapy (tumor growth)", "setting": "PAN02 tumors; obese vs lean, treatment from day 7, tumors resected day 19", "result": "less effective in preventing PAN02 tumor growth in obese animals than in lean"}
    ]},
    {"molecule": "CCCCc1nc(Cl)c(CO)n1Cc1ccc(-c2ccccc2-c2nn[nH]n2)cc1", "note": "[losartan]", "values": [
      {"measurement": "desmoplasia in PDAC", "setting": "PDAC", "result": "can reduce desmoplasia in PDAC"},
      {"measurement": "vascular perfusion, drug delivery and chemotherapy effectiveness", "setting": "PDAC", "result": "can enhance vascular perfusion by decompressing vessels, leading to improved drug delivery and chemotherapy effectiveness"},
      {"measurement": "response to chemotherapy with AT1 blockade", "setting": "PAN02 tumors; losartan with 5-FU, lean and obese", "result": "improved response to chemotherapy in obese, but not in lean animals"},
      {"measurement": "tumor αSMA protein expression", "setting": "PAN02 tumors; obese and lean", "result": "tendency for reduced tumor αSMA protein expression in obese but not lean setting"},
      {"measurement": "chemotherapy delivery to tumors", "setting": "PAN02 tumors; obese but not lean mice", "result": "increase chemotherapy delivery"},
      {"measurement": "tumor perfusion", "setting": "PAN02 tumors; obese but not lean mice", "result": "tended to improve perfusion"},
      {"measurement": "cytokine expression in tumors (multiplex protein)", "setting": "PAN02 tumors; obese mice", "result": "reduced the expression of multiple cytokines including IL-1"},
      {"measurement": "incidence of cardiac and renal fibrosis", "setting": "[1]", "result": "reduce the incidence of cardiac and renal fibrosis"},
      {"measurement": "progression of aortic and muscular lesions", "setting": "Marfan syndrome", "result": "can strikingly prevent progression of aortic and muscular lesions"},
      {"measurement": "blood vessel architecture and aortic aneurysms", "setting": "[2]", "result": "striking effects in improving blood vessel architecture and prevented the development of aortic aneurysms"},
      {"measurement": "enrichment for GR(+)F480(−) cells within the CD45 population", "setting": "PDACs", "result": "tended to decrease the enrichment for GR(+)F480(−) cells"},
      {"measurement": "enrichment for T regulatory cells within CD4 cells", "setting": "PDACs", "result": "tended to decrease the enrichment"}
    ]}
  ]
}
